Assay results published in patent US20250042887A1, “GLYCOGEN SYNTHASE KINASE-3 (GSK3) INHIBITOR COMPOUNDS FOR USE AS ANTIVIRAL AGENTS” (priority 2021, published 2025).
Like-named read-outs stand apart in the source and are kept apart here. Where no end group is shown, it is not given here. [ ]: non-standard residue; d: D form. pT = C[C@@H](OP(=O)(O)O)[C@H](N)C(=O)O; pS = N[C@@H](COP(=O)(O)O)C(=O)O

Legend:
HCoV-229E [1] = assay: High-content screen of GSK3β-focused library in HCoV-229E infected Huh-7.5.1 cells (intracellular dsRNA); type: cell-based, human coronavirus 229E (HCoV-229E); conditions: Human coronavirus 229E, single dose of 10 μM, Z′ 0.7
Huh-7.5.1 cells = conditions: single dose of 10 μM
Protocol: High content screening methodology and parameters. Monitoring of the total number of cells (based on nuclei staining) and number of virus infected cells (based on dsRNA and Nucleocapsid staining) was performed using the CellInsight CX7™ High Content Screening platform (Thermo Fisher™), as previously described (33042061). Shortly, nuclei are identified and counted using the 350′461 nm wavelength (Hoechst 33342™); cell debris and other particles are deducted based on a size filter tool. A Region of Interest (ROI, or “circle”) is then drawn around each host cell and validated against the bright field image to correspond with host cell membranes. The ROI encompasses the “spots”, where dsRNA (485/521 nm wavelength) and SARS-CoV-2 nucleocapsid (533/588 nm wavelength) are localized. Finally, the software (HCS Studio Cell Analysis Software™, version 4.0) identifies, counts and measures the pixel area and intensity of the spots within each circle. The fluorescent spot area measured within each cell (circle) is then added and quantified for each well. The total circle spot intensity of each well corresponds to the viral load, and is normalized to non-infected cells, and to cells infected with no compound. Nuclei stain (Hoechst 33342™) was used to quantify cell loss (due to cytotoxicity or loss of adherence), and to normalize the changes in viral load resulting from a decrease in cell numbers.

SARS-CoV-2 [2] = assay: High-content screen of GSK3β-focused library in SARS-CoV-2 infected Huh-7.5.1 cells (dsRNA or nucleocapsid); type: cell-based; conditions: for inhibition at 10 µM: Severe acute respiratory syndrome coronavirus 2, single dose of 10 μM, Huh-7.5.1 cells; for Activity (SARS-CoV-2): see TABLE A
SARS-CoV-2 [3] = assay: Dose-response of SARS-CoV-2 viral load (intracellular N protein) in Huh-7.5.1 cells; type: cell-based; conditions: Severe acute respiratory syndrome coronavirus 2, Huh-7.5.1, Huh-7.5.1 cells, intracellular N protein; read-out: ED50 (SARS-CoV-2)
HCoV-229E [4] = assay: Dose-response of HCoV-229E viral load (dsRNA) in Huh-7.5.1 cells; type: cell-based, human coronavirus 229E (HCoV-229E); conditions: Human coronavirus 229E, read-out: ED50 (HCoV-229E)
SARS-CoV-2 [5] = system: SARS-CoV-2; set-up: effect on N protein phosphorylation and SARS-CoV-2 replication: dose or concentration left out as unconfirmed; conditions: cited from earlier work
[6] = target: T1, glycogen synthase kinase-3-beta (Homo sapiens, UniProt P49841); assay: In vitro phosphorylation of nucleocapsid peptides, ADP-Glo, GSK3b; type: biochemical; conditions: for Relative Phosphorylation to No Kinase Control, GSK3b: Mean ± S.Dev. (n = 3), no kinase control = 100; for Relative Phosphorylation to Autophosphorylation Control (set at 100), GSK3b: peptide ~250 μM, 250 μM ATP, 30 min at 30° C., duplicate measurements
T1 construct: GST; purchased SignalChem Go9-10G
T1 sequence (P49841 whole entry): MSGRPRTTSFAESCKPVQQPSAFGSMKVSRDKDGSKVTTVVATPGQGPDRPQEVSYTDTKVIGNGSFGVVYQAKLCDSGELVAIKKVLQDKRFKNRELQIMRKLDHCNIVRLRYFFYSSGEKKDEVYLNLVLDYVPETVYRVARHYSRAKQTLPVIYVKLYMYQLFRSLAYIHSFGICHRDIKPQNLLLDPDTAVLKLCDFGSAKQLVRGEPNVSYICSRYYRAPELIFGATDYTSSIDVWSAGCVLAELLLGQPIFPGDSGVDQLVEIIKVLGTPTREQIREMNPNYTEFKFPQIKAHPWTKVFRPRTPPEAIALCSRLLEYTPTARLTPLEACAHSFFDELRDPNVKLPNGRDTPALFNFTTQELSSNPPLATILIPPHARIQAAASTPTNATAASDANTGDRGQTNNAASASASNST

[7] = target: cAMP-dependent protein kinase catalytic subunit-alpha (PKACa) (Homo sapiens, UniProt P17612); assay: In vitro phosphorylation of nucleocapsid peptides, ADP-Glo, PKACa; type: biochemical; conditions: peptide ~250 μM, 250 μM ATP, 30 min at 30° C.; duplicate measurements
[8] = target: T2, protein kinase C-alpha (PKC α) (Homo sapiens, UniProt P17252); assay: In vitro phosphorylation of nucleocapsid peptides, ADP-Glo, PKCa; type: biochemical; conditions: for Relative Phosphorylation to No Kinase Control, PKCa: Mean ± S.Dev. (n = 3), no kinase control = 100; for Relative Phosphorylation to Autophosphorylation Control (set at 100), PKCa: peptide ~250 μM, 250 μM ATP, 30 min at 30° C., duplicate measurements
T2 construct: GST; purchased SignalChem P61-18G

PKCa + GSK3b = assay: In vitro phosphorylation of nucleocapsid peptides, ADP-Glo, PKCa + GSK3b combined; type: biochemical, human; conditions: Mean ± S.Dev. (n = 3); no kinase control = 100
[9] = target: T3, casein kinase 2-alpha-1 (CK2a1) (Homo sapiens, UniProt P68400); assay: In vitro phosphorylation of nucleocapsid peptides, ADP-Glo, CK2a1; type: biochemical; conditions: peptide ~250 μM, 250 μM ATP, 30 min at 30° C.; duplicate measurements
T3 construct: GST; purchased SignalChem C70-10G
T3 sequence (P68400 whole entry): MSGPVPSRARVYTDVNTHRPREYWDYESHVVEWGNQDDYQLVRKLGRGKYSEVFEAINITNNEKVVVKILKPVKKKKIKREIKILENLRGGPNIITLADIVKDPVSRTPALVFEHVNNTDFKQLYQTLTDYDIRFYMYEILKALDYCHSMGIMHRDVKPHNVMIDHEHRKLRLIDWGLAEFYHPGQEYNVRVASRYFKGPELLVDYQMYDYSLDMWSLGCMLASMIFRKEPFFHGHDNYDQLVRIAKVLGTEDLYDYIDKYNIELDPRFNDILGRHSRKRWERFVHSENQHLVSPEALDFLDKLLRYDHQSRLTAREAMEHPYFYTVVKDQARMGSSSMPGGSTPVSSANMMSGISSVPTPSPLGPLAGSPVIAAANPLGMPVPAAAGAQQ

casein kinase 1-delta = target: T4, casein kinase 1-delta (Homo sapiens, UniProt P48730); assay: In vitro phosphorylation of nucleocapsid peptides, ADP-Glo, CK1d; type: biochemical; conditions: peptide ~250 μM, 250 μM ATP, 30 min at 30° C.; duplicate measurements
T4 construct: GST; purchased SignalChem C65-10G
T4 sequence (P48730 whole entry): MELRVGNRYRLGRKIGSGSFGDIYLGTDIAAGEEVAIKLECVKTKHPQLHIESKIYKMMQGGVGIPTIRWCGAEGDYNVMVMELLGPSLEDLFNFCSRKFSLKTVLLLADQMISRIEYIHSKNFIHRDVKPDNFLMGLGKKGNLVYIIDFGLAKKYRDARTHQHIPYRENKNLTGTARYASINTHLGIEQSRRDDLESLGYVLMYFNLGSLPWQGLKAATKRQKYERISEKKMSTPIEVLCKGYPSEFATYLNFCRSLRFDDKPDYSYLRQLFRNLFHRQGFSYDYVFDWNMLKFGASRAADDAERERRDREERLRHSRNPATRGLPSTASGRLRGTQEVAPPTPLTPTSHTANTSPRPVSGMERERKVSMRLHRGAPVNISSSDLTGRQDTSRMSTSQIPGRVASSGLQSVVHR

[10] = target: T5, extracellularly-regulated kinase-1 (ERK1) (Homo sapiens, UniProt P27361); assay: In vitro phosphorylation of nucleocapsid peptides, ADP-Glo, ERK1; type: biochemical; conditions: peptide ~250 μM, 250 μM ATP, 30 min at 30° C.; duplicate measurements
T5 construct: GST; purchased SignalChem M29-10G
T5 sequence (P27361 whole entry): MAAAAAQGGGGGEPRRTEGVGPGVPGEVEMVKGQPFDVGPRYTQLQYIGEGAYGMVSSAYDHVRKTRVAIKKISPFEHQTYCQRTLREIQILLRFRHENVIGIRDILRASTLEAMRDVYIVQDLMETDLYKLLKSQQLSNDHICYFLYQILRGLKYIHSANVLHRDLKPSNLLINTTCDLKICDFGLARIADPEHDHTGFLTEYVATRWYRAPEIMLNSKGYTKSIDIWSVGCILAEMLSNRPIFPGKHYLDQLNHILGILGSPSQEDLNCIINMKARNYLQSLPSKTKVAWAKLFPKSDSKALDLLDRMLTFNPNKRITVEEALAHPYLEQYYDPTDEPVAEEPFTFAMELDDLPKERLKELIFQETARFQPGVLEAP

[11] = target: T6, casein kinase 1-alpha-1 (CK1a1) (Homo sapiens, UniProt P48729); assay: In vitro phosphorylation of nucleocapsid peptides, ADP-Glo, CK1a1; type: biochemical; conditions: peptide ~250 μM, 250 μM ATP, 30 min at 30° C.; duplicate measurements
T6 construct: GST; purchased SignalChem C64-10G
T6 sequence (P48729 whole entry): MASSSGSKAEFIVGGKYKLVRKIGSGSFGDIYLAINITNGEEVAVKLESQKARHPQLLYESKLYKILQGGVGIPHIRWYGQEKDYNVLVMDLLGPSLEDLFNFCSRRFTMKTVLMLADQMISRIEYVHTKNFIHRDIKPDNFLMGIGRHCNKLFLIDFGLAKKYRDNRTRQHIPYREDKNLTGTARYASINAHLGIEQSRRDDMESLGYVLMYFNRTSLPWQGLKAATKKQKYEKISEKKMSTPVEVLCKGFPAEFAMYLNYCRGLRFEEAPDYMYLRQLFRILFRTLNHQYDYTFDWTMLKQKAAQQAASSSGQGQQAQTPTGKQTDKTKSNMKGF

[12] = target: cyclin-dependent kinase 2/cyclin A2 (CDK2/A2) (Homo sapiens, UniProt P24941); assay: In vitro phosphorylation of nucleocapsid peptides, ADP-Glo, CDK2/cyclin A2; type: biochemical; conditions: peptide ~250 μM, 250 μM ATP, 30 min at 30° C.; duplicate measurements
[13] = Z′ 0.3, read-out: SARS-CoV-2 inhibition (% dsRNA)
[14] = average of screens 1 and 2, read-out: Average SARS-CoV-2 Nucleocapsid inhibition
[15] = screen 1, Z′ 0.7, read-out: SARS-CoV-2 inhibition (% Nucleocapsid) 1
[16] = screen 2, Z′ 0.5, read-out: SARS-CoV-2 inhibition (% Nucleocapsid) 2

Compound | inhibition at 10 µM (HCoV-229E [1]) [%] | Average cell loss (%) (Huh-7.5.1 cells) | inhibition at 10 µM (SARS-CoV-2 [2]; [13]) [%] | inhibition at 10 µM (SARS-CoV-2 [2]; [14]) [%] | inhibition at 10 µM (SARS-CoV-2 [2]; [15]) [%] | inhibition at 10 µM (SARS-CoV-2 [2]; [16]) [%] | Relative Phosphorylation to No Kinase Control, GSK3b [6] | Relative Phosphorylation to Autophosphorylation Control (set at 100), GSK3b [6] | Relative Phosphorylation to Autophosphorylation Control (set at 100), PKACa [7] | Relative Phosphorylation to No Kinase Control, PKCa [8] | Relative Phosphorylation to Autophosphorylation Control (set at 100), PKCa [8] | also measured
COc1ccc(-n2cnc3ccc(-c4nnc(SCc5cccc(C#N)c5)o4)cc32)cc1 [Compound P-0780332] | 0 | 9.2 | 0.6 | 0 | 0 | 0 | – | – | – | – | – | Activity (SARS-CoV-2) (SARS-CoV-2 [2]): inactive (see TABLE A)
CSc1ccc(-n2cnc3ccc(-c4nnc(CCc5cccc(C(F)(F)F)c5)o4)cc32)cc1 [Compound P-3817632] | 87.7 | 12.7 | 100 | 71.4 | 70.8 | 72 | – | – | – | – | – | Activity (SARS-CoV-2) (SARS-CoV-2 [2]): active (see TABLE A)
O=C(NCc1ccccn1)Nc1cc(N2CC(CCc3ccccc3)CC2=O)ccn1 (centres unmarked) [Compound P-4423632] | 43.2 | 12.0 | 100 | 95.2 | 98 | 92.4 | – | – | – | – | – | Activity (SARS-CoV-2) (SARS-CoV-2 [2]): active (see TABLE A)
Cc1nnc(-c2ccc3occ(-c4ccc([S+](C)[O-])c(OC(F)(F)F)c4)c3c2)o1 (centres unmarked) [Compound P-5782442] | 60 | 16.1 | 100 | 93.8 | 93.3 | 94.4 | – | – | – | – | – | Activity (SARS-CoV-2) (SARS-CoV-2 [2]): active (see TABLE A)
C[S+]([O-])c1ccc(-c2coc3ccc(-c4nnc(SCc5cccc(F)c5)o4)cc23)cc1 (centres unmarked) [Compound P-7657632] | 100 | 25.4 | 100 | 93.1 | 100 | 86.2 | – | – | – | – | – | EC50 (SARS-CoV-2 [3]): ~3 µM; EC50 (HCoV-229E [4]): ~3 µM
CSc1ccc(-c2coc3ccc(-c4nnc(N)o4)cc23)cc1Cl [Compound P-9071942] | 94.2 | 29.9 | 100 | 94.5 | 100 | 89.1 | – | – | – | – | – | EC50 (SARS-CoV-2 [3]): ~3 µM; EC50 (HCoV-229E [4]): ~3 µM
Cn1cc(C2=C(c3cn(C4CCN(Cc5ccccn5)CC4)c4ccccc34)C(=O)NC2=O)c2ccccc21 [Enzastaurin] | – | – | – | – | – | – | – | – | – | – | – | effect on infection (SARS-CoV-2 [5]; A549-ACE2 human lung cancer-derived cell line and Vero E6 cells, reference [7]): reduced infection; effect on N protein phosphorylation and SARS-CoV-2 replication (SARS-CoV-2 [5]; reference [7]): blocked N protein phosphorylation and SARS-CoV-2 replication
[Cl-].[Li+] [Lithium chloride] | – | – | – | – | – | – | – | – | – | – | – | IC50 (SARS-CoV-2 [5]; from reference [7], read-out: IC50 to inhibit N protein phosphorylation and SARS-CoV-2 replication in cells): 10000 µM
RGGSQASSRSS(pS)RS (RGGSQASSRSS[pS]RS) [SCV2-N [177-190]-pS188, synthetic peptide modeled after SARS-CoV-2 nucleocapsid protein phosphorylation sites, pre-phosphorylated at S188] | – | – | – | – | – | – | 24,585 ± 645 | 1209 | 128 | 3861 ± 71 | 389 | –
RGGSQASSRSSSRS [SCV2-N [177-190], synthetic peptide modeled after SARS-CoV-2 nucleocapsid protein phosphorylation sites] | – | – | – | – | – | – | 2161 ± 63 | 107 | 162 | 13,714 ± 502 | 1320 | Relative Phosphorylation to No Kinase Control, PKCa + GSK3b (PKCa + GSK3b): 3572 ± 22
SQASSRSSSR(pS)RNS (SQASSRSSSR[pS]RNS) [SCV2-N [180-193]-pS190, synthetic peptide modeled after SARS-CoV-2 nucleocapsid protein phosphorylation sites, pre-phosphorylated at S190] | – | – | – | – | – | – | 2957 ± 3 | 111 | 312 | 4161 ± 66 | 418 | Relative Phosphorylation to Autophosphorylation Control (set at 100), CK2a1 [9]: 100
SQASSRSSSRSRNS [SCV2-N [180-193], synthetic peptide modeled after SARS-CoV-2 nucleocapsid protein phosphorylation sites] | – | – | – | – | – | – | 2407 ± 23 | 102 | 123 | 16,366 ± 261 | 1278 | Relative Phosphorylation to Autophosphorylation Control (set at 100), CK2a1 [9]: 101; Relative Phosphorylation to No Kinase Control, PKCa + GSK3b (PKCa + GSK3b): 3836 ± 41
SSRSRNSSRNS(pT)PG (SSRSRNSSRNS[pT]PG) [SCV2-N [187-200]-pT198, synthetic peptide modeled after SARS-CoV-2 nucleocapsid protein phosphorylation sites, pre-phosphorylated at T198] | – | – | – | – | – | – | 23,031 ± 486 | 1042 | 157 | 7032 ± 319 | 553 | Relative Phosphorylation to Autophosphorylation Control (set at 100), CK1d (casein kinase 1-delta): 152; Relative Phosphorylation to Autophosphorylation Control (set at 100), ERK1 [10]: 100; Relative Phosphorylation to Autophosphorylation Control (set at 100), CK1a1 [11]: 250; Relative Phosphorylation to Autophosphorylation Control (set at 100), CDK2 + Cyclin A2 [12]: 101; Relative Phosphorylation to Autophosphorylation Control (set at 100), CK2a1 [9]: 102
SSRSRNSSRNSTPG [SCV2-N [187-200], synthetic peptide modeled after SARS-CoV-2 nucleocapsid protein phosphorylation sites] | – | – | – | – | – | – | 2573 ± 49 | 108 | 485 | 12,687 ± 486 | 1080 | Relative Phosphorylation to Autophosphorylation Control (set at 100), CK1d (casein kinase 1-delta): 100; Relative Phosphorylation to Autophosphorylation Control (set at 100), ERK1 [10]: 100; Relative Phosphorylation to Autophosphorylation Control (set at 100), CK1a1 [11]: 145; Relative Phosphorylation to Autophosphorylation Control (set at 100), CDK2 + Cyclin A2 [12]: 100; Relative Phosphorylation to Autophosphorylation Control (set at 100), CK2a1 [9]: 103; Relative Phosphorylation to No Kinase Control, PKCa + GSK3b (PKCa + GSK3b): 3692 ± 61
